# Experimental data published in US4820694A, “Modifications of 3-O-demethylmycinose in macrocin and lactenocin” (priority 1986, dated 1989).
# Where two headings read alike, the source gives them in different places.
# Experiments:
# [1] = system: Streptococcus pneumoniae Park I; experiment: microbe, parasite or virus in culture; assay type: cell-based; settings: Streptococcus pneumoniae
# Experimental: (§1) The MIC's in Table III were determined by standard agar-dilution assays. The MIC's in Table IV were obtained using conventional brothdilution microtiter tests.
# [2] = system: Staphylococcus aureus S13E; experiment: microbe, parasite or virus in culture; assay type: cell-based; settings: Staphylococcus aureus, S13E
# Experimental: as §1
# [3] = system: Pasteurella multocida 22A; experiment: broth-dilution microtiter MIC test; assay type: cell-based; settings: Pasteurella multocida, 22A
# Experimental: as §1
# [4] = system: Pasteurella hemolytica 41D; experiment: broth-dilution microtiter MIC test; assay type: cell-based; settings: Pasteurella, 41D
# Experimental: as §1
# [5] = system: Mycoplasma gallisepticum 29C; experiment: broth-dilution microtiter MIC test; assay type: cell-based; settings: Mycoplasmoides gallisepticum, 29C
# Experimental: as §1
# [6] = system: Pasteurella multocida 17E; experiment: broth-dilution microtiter MIC test; assay type: cell-based; settings: Pasteurella multocida, 17E
# Experimental: as §1
# [7] = system: Mycoplasma gallisepticum 15E; experiment: broth-dilution microtiter MIC test; assay type: cell-based; settings: Mycoplasmoides gallisepticum, 15E
# Experimental: as §1
# [8] = system: Pasteurella multocida 60A; experiment: broth-dilution microtiter MIC test; assay type: cell-based; settings: Pasteurella multocida, 60A
# Experimental: as §1
# [9] = system: Staphylococcus aureus 19C; experiment: broth-dilution microtiter MIC test; assay type: cell-based; settings: Staphylococcus aureus, 19C
# Experimental: as §1
# [10] = system: Pasteurella hemolytica 23C; experiment: broth-dilution microtiter MIC test; assay type: cell-based; settings: Pasteurella, 23C
# Experimental: as §1
# Mycoplasma hyorhinis 29E = experiment: broth-dilution microtiter MIC test; assay type: cell-based; settings: Mycoplasma, 29E
# Experimental: as §1
# [11] = system: Pasteurella multocida 40G; experiment: broth-dilution microtiter MIC test; assay type: cell-based; settings: Pasteurella multocida, 40G
# Experimental: as §1
# [12] = system: Pasteurella multocida 68C; experiment: broth-dilution microtiter MIC test; assay type: cell-based; settings: Pasteurella multocida, 68C
# Experimental: as §1
# Mycoplasma synoviae 40A = experiment: broth-dilution microtiter MIC test; assay type: cell-based; settings: Mycoplasmopsis synoviae, 40A
# Experimental: as §1
# Streptococcus sp. 19F = experiment: broth-dilution microtiter MIC test; assay type: cell-based; settings: Streptococcus, SP.19F
# Experimental: as §1
# [13] = system: Mycoplasma gallisepticum 36H; experiment: broth-dilution microtiter MIC test; assay type: cell-based; settings: Mycoplasmoides gallisepticum, 36H
# Experimental: as §1
# [14] = system: Bordetella bronchiseptica; experiment: broth-dilution microtiter MIC test; assay type: cell-based; settings: Bordetella bronchiseptica
# Experimental: as §1
# [15] = system: Pasteurella hemolytica 22C; experiment: broth-dilution microtiter MIC test; assay type: cell-based; settings: Pasteurella, 22C
# Experimental: as §1
# [16] = system: Staphylococcus aureus X400; experiment: standard agar-dilution MIC assay; assay type: cell-based; settings: Staphylococcus aureus, X400
# Experimental: as §1
# [17] = system: Staphylococcus aureus V41; experiment: standard agar-dilution MIC assay; assay type: cell-based; settings: Staphylococcus aureus, V41
# Experimental: as §1
# [18] = system: Staphylococcus aureus X1.1; experiment: standard agar-dilution MIC assay; assay type: cell-based; settings: Staphylococcus aureus, X1.1
# Experimental: as §1
# [19] = system: Streptococcus pyogenes C203; experiment: standard agar-dilution MIC assay; assay type: cell-based; settings: Streptococcus pyogenes, C203
# Experimental: as §1
# [20] = system: Haemophilus influenzae C.L.; experiment: standard agar-dilution MIC assay; assay type: cell-based; settings: Haemophilus influenzae; agar-dilution; Ampicillin-sensitive strain; read-out: MIC
# Experimental: as §1
# Escherichia coli EC14 = experiment: standard agar-dilution MIC assay; assay type: cell-based
# Experimental: as §1
# [21] = system: Pseudomonas aeruginosa X239; experiment: standard agar-dilution MIC assay; assay type: cell-based; settings: Pseudomonas aeruginosa, X239
# Experimental: as §1
# [22] = system: Haemophilus influenzae 76; experiment: standard agar-dilution MIC assay; assay type: cell-based; settings: Haemophilus influenzae, 76
# Experimental: as §1
# [23] = system: Staphylococcus epidermidis EP12; experiment: standard agar-dilution MIC assay; assay type: cell-based
# Experimental: as §1
# [24] = system: Streptococcus Group D X66; experiment: standard agar-dilution MIC assay; assay type: cell-based; settings: read-out: MIC
# Experimental: as §1
# [25] = system: Klebsiella pneumoniae X68; experiment: standard agar-dilution MIC assay; assay type: cell-based; settings: Klebsiella pneumoniae, X68
# Experimental: as §1
# [26] = system: Streptococcus Group D 9960; experiment: standard agar-dilution MIC assay; assay type: cell-based; settings: GROUPD9960, read-out: MIC
# Experimental: as §1
# [27] = system: Staphylococcus epidermidis EPI1; experiment: standard agar-dilution MIC assay; assay type: cell-based; settings: Staphylococcus epidermidis, EPI1
# Experimental: as §1
# [28] = system: Streptococcus pyogenes C203; experiment: protection of mice experimentally infected with S. pyogenes C203; assay type: in vivo; settings: mice, mg/kg × 2, doses given 1 and 4 hours postinfection, read-out: ED50
# Experimental: The formula 1 compounds have shown in vivo antimicrobial activity against experimentally-induced infections in laboratory animals. When two doses of test compound were administered to mice experimentally infected with S. pyrogenes C203, the activity observed was measured as an ED50 value [effective dose in mg/kg to protect 50% of the test animals: see Warren Wick, et al., J. Bacteriol. 81, 233-235 (1961)].
# ^a mg/kg × 2; doses given 1 and 4 hours postinfection
# [29] = broth-dilution microtiter, read-out: MIC
structure (smiles),measurement,setting,value
"CCC1OC(=O)CC(O)C(C)C(OC2OC(C)C(OC3CC(C)(O)C(O)C(C)O3)C(N(C)C)C2OC(C)=O)C(CC=O)CC(C)C(=O)C=CC(C)=CC1COC1OC(C)C(OC(C)=O)C(O)C1OC (stereo not drawn) [Compound 1, 2',4'""-Di-O-acetyl-macrocin]",MIC,"[1]; agar-dilution, read-out: MIC",0.5 µg/mL
same,MIC,[2],4 µg/mL
same,MIC,[3],> 50 µg/mL
same,MIC,[4],> 50 µg/mL
same,MIC,[5]; [29],0.78 µg/mL
same,MIC,[6],> 50 µg/mL
same,MIC,[7],> 50 µg/mL
same,MIC,[8],> 50 µg/mL
same,MIC,[9]; [29],6.25 µg/mL
same,MIC,[10],> 50 µg/mL
same,MIC,Mycoplasma hyorhinis 29E; [29],25 µg/mL
same,MIC,[11],> 50 µg/mL
same,MIC,[12],> 50 µg/mL
same,MIC,Mycoplasma synoviae 40A; [29],1.56 µg/mL
same,MIC,Streptococcus sp. 19F; [29],3.12 µg/mL
same,MIC,[13],> 50 µg/mL
same,MIC,[14],> 50 µg/mL
same,MIC,[15],> 50 µg/mL
same,MIC,[16],4 µg/mL
same,MIC,"[17]; agar-dilution, Penicillin-resistant strain, read-out: MIC",2 µg/mL
same,MIC,"[18]; agar-dilution, read-out: MIC",2 µg/mL
same,MIC,[19],1 µg/mL
same,MIC,[20],64 µg/mL
same,MIC,Escherichia coli EC14,> 128 µg/mL
same,MIC,[21],> 128 µg/mL
same,MIC,[22],1 µg/mL
same,MIC,"[23]; agar-dilution, read-out: MIC",2 µg/mL
same,MIC,[24],4 µg/mL
same,MIC,[25],> 128 µg/mL
same,MIC,[26],4 µg/mL
same,MIC,"[27]; agar-dilution, read-out: MIC",2 µg/mL
same,ED50,"[28]; C203, Oral",43.5 mg/kg
same,ED50,"[28]; C203, sc, Subcutaneous",6.6 mg/kg
"CCC1OC(=O)CC(O)C(C)C(OC2OC(C)C(OC3CC(C)(O)C(O)C(C)O3)C(N(C)C)C2OC(C)=O)C(CC=O)CC(C)C(=O)C=CC(C)=CC1COC1OC(C)C(OC(=O)CC(C)C)C(OC(=O)CC(C)C)C1OC (stereo not drawn) [Compound 7, 2'-O-ACETYL-3'"",4'""-di-O-isovaleryl-macrocin]",MIC,[1],2 µg/mL
same,MIC,[2],8 µg/mL
same,MIC,[3]; [29],> 50 µg/mL
same,MIC,[4]; [29],> 50 µg/mL
same,MIC,[5],3.12 µg/mL
same,MIC,"[6]; broth-dilution microtiter, Bovine isolate, read-out: MIC",> 50 µg/mL
same,MIC,[7],12.5 µg/mL
same,MIC,"[8]; broth-dilution microtiter, Avian isolate, read-out: MIC",> 50 µg/mL
same,MIC,[9],12.5 µg/mL
same,MIC,[10]; [29],> 50 µg/mL
same,MIC,Mycoplasma hyorhinis 29E,6.25 µg/mL
same,MIC,[11]; [29],> 50 µg/mL
same,MIC,[12]; [29],> 50 µg/mL
same,MIC,Mycoplasma synoviae 40A,3.12 µg/mL
same,MIC,Streptococcus sp. 19F,3.12 µg/mL
same,MIC,[13],50 µg/mL
same,MIC,[14]; [29],> 50 µg/mL
same,MIC,[15]; [29],> 50 µg/mL
same,MIC,[16],16 µg/mL
same,MIC,[17],8 µg/mL
same,MIC,[18],8 µg/mL
same,MIC,[19],4 µg/mL
same,MIC,[20],> 128 µg/mL
same,MIC,"Escherichia coli EC14; agar-dilution, read-out: MIC",> 128 µg/mL
same,MIC,"[21]; agar-dilution, read-out: MIC",> 128 µg/mL
same,MIC,"[22]; agar-dilution, Ampicillin-resistant strain, read-out: MIC",> 128 µg/mL
same,MIC,[23],8 µg/mL
same,MIC,[24],16 µg/mL
same,MIC,"[25]; agar-dilution, read-out: MIC",> 128 µg/mL
same,MIC,[26],8 µg/mL
same,MIC,[27],8 µg/mL
same,ED50,"[28]; C203, Oral",71.4 mg/kg
same,ED50,"[28]; C203, sc, Subcutaneous",> 10 mg/kg
